Structures can show the parent of a compound that is named as a salt.
Experiments:
human H3 receptor = target: T1, human H3 receptor (Homo sapiens, UniProt Q9Y5N1); assay: Human H3 radioligand binding ([3H]-N-alpha-methylhistamine, CHO cell membranes); conditions: Human H3 binding constant, class symbols; read-out: hH3 Ki
T1 construct: expressed in transfected cells
Procedure: (§1) Methods: CHO cells stably expressing the human H3 receptor (GenBank: NM_007232) were harvested and cell pellets were frozen (−80° C.). Cell pellets were resuspended in 5 mM Tris-HCl, pH 7.5 with 5 nM EDTA and a cocktail of protease inhibitors (Complete Protease Inhibitor Tablets, Roche Diagnostics). Cells were disrupted using a polytron cell homogenizer and the suspension was centrifuged at 1000×g for 10 minutes at 4° C. The pellet was discarded and the supernatant centrifuged at 40,000×g for 30 min at 4° C. This membrane pellet was washed in membrane buffer containing 50 mM Tris-HCl, pH 7.5 with 0.6 mM EDTA, 5 mM MgCl2 and protease inhibitors, recentrifuged as above and the final pellet resuspended in membrane buffer plus 250 mM sucrose and frozen at −80° C.
(§2) Radioligand Binding. Membranes were resuspended in 50 mM Tris HCl (pH 7.4), 5 mM MgCl2, 0.1% BSA. The membrane suspensions (10 μg protein per well) were incubated in a 96 well microtiter plate with [^3H]-N-alpha-methylhistamine (approximately 1 nM final concentration), test compounds at various concentrations (0.01 nM-30 μM) and scintillation proximity beads (Perkin Elmer, FlashBlueGPCR Scintillating Beads) in a final volume of 80 μl for 4 hours at room temperature, protected from light. Non-specific binding was determined in the presence of 10 μM clobenpropit. Radioligand bound to receptor, and therefore in proximity to the scintillation beads, was measured using a MicroBeta scintillation counter.

[1] = target: T2, rat histamine H3 receptor (Rattus norvegicus, UniProt Q9QYN8); assay: Rat H3 radioligand binding ([3H]-N-alpha-methylhistamine, CHO-A3 cell membranes); conditions: Rat H3 binding constant, class symbols; read-out: rH3 Ki
T2 construct: encoding the entire 445-amino-acid rat histamine H3 receptor; expressed in transfected cells
Text: as §1, with “Cell line development and membrane preparation. The rat” for “Methods: CHO cells stably expressing the human”, “cDNA was PCR amplified from reverse-transcribed RNA pooled from rat thalamus, hypothalamus, striatum and prefrontal cortex with a sequence corresponding to by #338-1672 of Genbank file #NM_053506, encoding the entire 445-amino-acid rat histamine H3 receptor. This was engineered into the pIRES-neo3 mammalian expression vector, which was stably transfected into the CHO-A3 cell line (Euroscreen, Belgium), followed by clonal selection by limiting dilution. Cells” for “(GenBank: NM_007232)”
as §2

T2 sequence (Q9QYN8 whole entry): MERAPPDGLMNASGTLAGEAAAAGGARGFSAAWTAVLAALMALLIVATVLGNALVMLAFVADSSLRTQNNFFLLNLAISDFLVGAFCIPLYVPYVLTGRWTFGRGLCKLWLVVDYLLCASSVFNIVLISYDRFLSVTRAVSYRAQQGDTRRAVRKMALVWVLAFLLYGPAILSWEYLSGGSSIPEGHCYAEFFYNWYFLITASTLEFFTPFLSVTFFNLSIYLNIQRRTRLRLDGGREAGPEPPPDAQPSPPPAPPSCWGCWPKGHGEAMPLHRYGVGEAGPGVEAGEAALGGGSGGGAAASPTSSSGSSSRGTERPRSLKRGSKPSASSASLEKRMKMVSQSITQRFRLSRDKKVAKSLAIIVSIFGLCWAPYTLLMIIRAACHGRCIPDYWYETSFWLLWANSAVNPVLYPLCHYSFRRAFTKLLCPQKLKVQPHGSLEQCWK
T1 sequence (Q9Y5N1 whole entry): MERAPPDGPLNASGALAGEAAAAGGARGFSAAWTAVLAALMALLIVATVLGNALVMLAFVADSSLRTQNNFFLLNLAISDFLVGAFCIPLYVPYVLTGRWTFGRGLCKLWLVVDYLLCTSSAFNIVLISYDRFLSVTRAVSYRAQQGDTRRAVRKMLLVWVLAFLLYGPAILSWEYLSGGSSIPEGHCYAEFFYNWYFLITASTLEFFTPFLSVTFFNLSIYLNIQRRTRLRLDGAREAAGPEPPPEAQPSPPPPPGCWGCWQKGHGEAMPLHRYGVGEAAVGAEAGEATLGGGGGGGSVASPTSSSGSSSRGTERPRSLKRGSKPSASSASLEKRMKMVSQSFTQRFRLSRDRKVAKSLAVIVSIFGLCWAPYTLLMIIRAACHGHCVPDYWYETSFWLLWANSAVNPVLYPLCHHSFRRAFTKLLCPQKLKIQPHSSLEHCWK

Structure (SMILES) | Ki (human H3 receptor) [nM] | Ki [1] [nM]
CC(C)N1N=C(c2ccc3c(c2)CCNCC3)CCC1=O [Example 3, 2-Isopropyl-6-(2,3,4,5-tetrahydro-1H-benzo[d]azepin-7-yl)-4,5-dihydro-2H-pyridazin-3-one] | 100 to 1000 | 100 to 1000
CN(CCc1ccc(-c2ccc(=O)n(C)n2)cc1)C1CCCCC1 [Example 55] | 100 to 1000 | 100 to 1000
Cn1nc(-c2ccc(C(=O)N3CCC[C@H]3CN3CCCC3)cc2)ccc1=O [Example 45, 2-Methyl-6-[4-((S)-2-pyrrolidin-1-ylmethyl-pyrrolidine-1-carbonyl)-phenyl]-2H-pyridazin-3-one] | < 100 | < 100
O=c1c(Cl)c(Oc2ccc3c(c2)CCN(C2CCC2)CC3)cnn1-c1ccccn1 [Example 33, 4-Chloro-5-(3-cyclobutyl-2,3,4,5-tetrahydro-1H-benzo[d]azepin-7-yloxy)-2-pyridin-2-yl-2H-pyridazin-3-one] | < 100 | < 100
CC(C)N1CCc2ccc(-c3ccc(=O)n(C)n3)cc2CC1 [Example 22, 6-(3-Isopropyl-2,3,4,5-tetrahydro-1H-benzo[d]azepin-7-yl)-2-methyl-2H-pyridazin-3-one. HCl] | 100 to 1000 | 100 to 1000
C[C@@H]1CCCN1CCc1ccc(-c2ccc(=O)n(C)n2)cc1 [Example 63] | < 100 | < 100
O=c1ccc(-c2ccc(CCN3CCCCC3)cc2)nn1-c1ccccc1 [Example 65] | 100 to 1000 | 100 to 1000
CS(=O)(=O)c1ccc(-n2nc(-c3ccc4c(c3)CCNCC4)ccc2=O)cc1 [Example 24, 2-(4-Methanesulfonyl-phenyl)-6-(2,3,4,5-tetrahydro-1H-benzo[d]azepin-7-yl)-2H-pyridazin-3-one] | > 1000 | –
O=C1NN=C(c2ccc3c(c2)CCNCC3)C2CCCC12 (stereo not drawn) [Example 41, 4-(2,3,4,5-Tetrahydro-1H-benzo[d]azepin-7-yl)-2,4-a,5,6,7,7a-hexahydro-cyclopenta[d]pyridazin-1-one] | 100 to 1000 | 100 to 1000
Cn1nc(-c2ccc(C(=O)N3CCN4CCC[C@H]4C3)cc2)ccc1=O [Example 48, 6-[4-((S)-Hexahydro-pyrrolo[1,2-a]pyrazine-2-carbonyl)-phenyl]-2-methyl-2H-pyridazin-3-one] | 100 to 1000 | 100 to 1000

The remaining lines, values ahead:

Ki (human H3 receptor) [nM] | Ki [1] [nM] | Structure (SMILES)
< 100 | < 100 | C[C@@H]1CCCN1CCc1ccc(-c2ccc(=O)n(-c3ccc(Cl)cc3)n2)cc1 [Example 52]
< 100 | 100 to 1000 | O=c1c(Cl)c(Oc2ccc3c(c2)CCN(C2CCC2)CC3)cnn1CC(F)(F)F [Example 34, 4-Chloro-5-(3-cyclobutyl-2,3,4,5-tetrahydro-1H-benzo[d]azepin-7-yloxy)-2-(2,2,2-trifluoro-ethyl)-2H-pyridazin-3-one]
< 100 | < 100 | Cn1ncc(Oc2ccc3c(c2)CCN(C2CCC2)CC3)c(Cl)c1=O [Example 30, 4-Chloro-5-(3-cyclobutyl-2,3,4,5-tetrahydro-1H-benzo[d]azepin-7-yloxy)-2-methyl-2H-pyridazin-3-one]
< 100 | 100 to 1000 | Cn1nc(-c2ccc3c(c2)CCN(C2CCCC2)CC3)ccc1=O [Example 23, 6-(3-Cyclopentyl-2,3,4,5-tetrahydro-1H-benzo[d]azepin-7-yl)-2-methyl-2H-pyridazin-3-one. HCl]
100 to 1000 | 100 to 1000 | CC(=O)N1CCN(CCc2ccc(-c3ccc(=O)n(C)n3)cc2)CC1 [Example 58]
< 100 | < 100 | Cn1ncc(Oc2ccc3c(c2)CCN(C2CCC2)CC3)c(Br)c1=O [Example 31, 4-Bromo-5-(3-cyclobutyl-2,3,4,5-tetrahydro-1H-benzo[d]azepin-7-yloxy)-2-methyl-2H-pyridazin-3-one]
< 100 | 100 to 1000 | C[C@@H]1CCCN1CCc1ccc(-c2ccc(=O)n(-c3ccccn3)n2)cc1 [Example 69]
